Patent US20260272869A1, “ORAL COMPOSITION COMPRISING L-THEANINE” (NICOVENTURES TRADING LIMITED, priority 2023, published 2026)

The compounds below were run on blood-brain barrier (assay: Enhancement of blood-brain barrier permeation of P-glycoprotein substrate compounds by piperine). Details: P-glycoprotein substrate compound combined with piperine.

Row | SMILES | Permeation across the blood-brain barrier / bioavailability when combined with piperine
1 | CC1=C(C)C(=O)O[C@@H]([C@](C)(O)[C@H]2CC[C@H]3[C@@H]4[C@@H]5O[C@@H]5[C@@]5(O)CC=CC(=O)[C@]5(C)[C@H]4CC[C@]23C)C1 [withanolide A] | enhanced
2 | CC(/C=C/C=C(\C)C(=O)O[C@@H]1O[C@H](CO[C@@H]2O[C@H](CO)[C@@H](O)[C@H](O)[C@H]2O)[C@@H](O)[C@H](O)[C@H]1O)=C\C=C\C=C(C)\C=C\C=C(/C)C(=O)O[C@@H]1O[C@H](CO[C@@H]2O[C@H](CO)[C@@H](O)[C@H](O)[C@H]2O)[C@@H](O)[C@H](O)[C@H]1O [crocin] | enhanced
3 | CC1=C(C)C(=O)O[C@@H]([C@@H](C)[C@@]2(O)CC[C@H]3[C@@H]4[C@@H]5O[C@@H]5[C@@]5(O)CC=CC(=O)[C@]5(C)[C@H]4CC[C@@]32C)C1 [withanone] | enhanced
4 | CC(/C=C/C=C(\C)C(=O)O)=C\C=C\C=C(C)\C=C\C=C(/C)C(=O)O [crocetin] | enhanced
